Laboratory results from patent publication US20230158151A1 (NURIX THERAPEUTICS, INC., priority 2021, published 2023).

Biological target: T1, ITK (Mus musculus, UniProt Q03526)
T1 construct: administered to mice orally; from tissue; host or cells: mouse splenocytes (spleen) after oral dosing
T1 sequence (Q03526 1-625): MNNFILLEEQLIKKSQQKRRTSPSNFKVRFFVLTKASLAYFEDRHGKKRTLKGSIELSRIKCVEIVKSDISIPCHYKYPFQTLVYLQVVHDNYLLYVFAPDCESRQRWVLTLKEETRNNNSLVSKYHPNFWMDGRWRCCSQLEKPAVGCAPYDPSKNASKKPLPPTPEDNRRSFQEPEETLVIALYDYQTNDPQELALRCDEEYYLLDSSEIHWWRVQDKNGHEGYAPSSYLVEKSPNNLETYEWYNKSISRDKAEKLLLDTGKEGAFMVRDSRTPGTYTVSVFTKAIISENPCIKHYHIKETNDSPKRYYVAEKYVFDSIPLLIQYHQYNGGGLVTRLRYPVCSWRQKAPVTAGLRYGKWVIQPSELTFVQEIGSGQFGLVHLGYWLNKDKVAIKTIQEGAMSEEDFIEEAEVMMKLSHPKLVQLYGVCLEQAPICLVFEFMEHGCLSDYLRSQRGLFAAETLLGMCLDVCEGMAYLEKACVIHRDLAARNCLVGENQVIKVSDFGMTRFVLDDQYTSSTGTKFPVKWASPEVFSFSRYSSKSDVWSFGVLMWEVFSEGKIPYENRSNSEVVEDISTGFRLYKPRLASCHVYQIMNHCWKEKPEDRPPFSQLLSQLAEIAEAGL
Test: Western Assay for ITK Degradation in Mouse Splenocytes after oral administration
Assay type: in vivo
Conditions: % ITK remaining in mouse splenocytes, 90 mpk PO, 6 h
Protocol: Compounds 30 and 31 were administered to mice orally. After 6 hours, splenocytes cells were harvested. ITK was evaluated by Western blotting. Media was removed and cell pellets were lysed in 100 μL lysis buffer (RIPA buffer (Fisher, PI89901), cOmplete Mini EDTA-free protease inhibitor (Sigma 11836170001), Protease Inhibitor Cocktail (Sigma, P2714), Phosphatase Inhibitor Cocktail 2 and 3 (Sigma, P5726 and P0044), Benzonase (Sigma, E1014)). Cells were lysed overnight at −20° C. Following thaw, cells were centrifuged for 10 min at 13000 rpm, then transferred to new tube. Protein levels were determined by BCA Assay performed according to manufacturer's protocol (EMD Millipore, cat. no. 71285-3). Samples were combined with (4×) LDS Sample Buffer and (10×) Reducing Agent and H2O to equally load 20 μg protein per lane of a 26-well NuPAGE 4-12% Bis-Tris protein gel (1.0 mm, Thermo cat. no. NP0326). Samples were separated by running gels at constant 150 V in NuPAGE MES SDS Running Buffer. Following electrophoresis, proteins were transferred to nitrocellulose membranes using an iBlot Gel Transfer Device and iBlot Gel Transfer Stacks (Thermo cat. no. IB21001 and IB301001) and transfer method P3 (20V for 7 min). Membranes were blocked for 1 hr in 5% milk solution (TBS (0.2% Tween-20)). Following blocking, membranes were incubated with primary antibody (1:1000 CST ITK (2F12) #2380) overnight at 4° C. with gentle shaking. Blots were washed 2× in TBS (0.2% Tween-20), 30 min per wash. Following washes, blots were incubated in secondary HRP-conjugated antibody (Promega anti-Mouse IgG (H+L) HRP cat. no. W4021), 1:5000 in 5% milk solution (TBS (0.2% Tween-20)), for 1 hr at room temperature with gentle shaking. Blots were washed 2× in TBS (0.2% Tween-20), 30 min per wash. Blots were incubated with 1:1 mix of ECL reagents 1 & 2 (Amersham ECL Western Blotting Detection Reagent, cat. no. RPN2106) for 2 min at room temperature. Bands were visualized using a Protein Simple imager. Blots were then re-probed with a combination of anti-actin antibody (Sigma Monoclonal Mouse Anti-β-Actin (clone AC-15), cat. no. A5441) and secondary HRP-conjugated antibody (Promega anti-Mouse IgG (H+L) HRP, cat. no. W4021) and similar steps were taken for incubation, wash, detection and visualization steps as above. The data was analyzed using Alpha View software. The densitometric reading for each sample band was normalized to that of the corresponding actin band per lane. Approximate % ITK remaining per sample was calculated as follows: […]
Once % ITK remaining has been calculated for each sample, groups are averaged together to show an means % ITK normalized to actin and relative to control.
Compounds 30 and 29 were administered to mice orally. After 6 hours or 24 hours, splenocytes cells were harvested. ITK was evaluated by Western blotting. Plasma concentrations were determined by LC/MS/MS. Plasma samples were protein precipitated by addition of 100 μl of acetonitrile containing 50 ng/ml of internal standard. The resulting mixture was vortexed and centrifuged at 4000 RPM for 5 minutes. An aliquot of the resultant supernatant (75 μl) was added to 75 μl of 0.1% formic acid in water to constitute the final sample for injection. Samples were injected on a Shimadzu Exion LC Binary Gradient AD Pump HLPC system connected to a Sciex QTRAP 6500+ mass spectrometer. Five μl of sample was injected onto a Waters Acquity UPLC BEH C18 column 130A (2.1×30 mm, […]) at 40° C. utilizing a flow rate of 700 μl/minute. Mobile Phase A was 0.1% formic acid in water and mobile phase B was 0.1% formic acid in acetonitrile. A linear gradient of 15-95% B over 1.0 minute was used. The mass spectrometer was operated in positive ion electrospray mode with multiple reaction monitoring for maximum sensitivity. Sciex Analyst software (version 1.6.3) was used for LC/MS/MS instrument control and acquisition. […]

| SMILES | ITK (%) 90 mpk PO, 6 h [%] |
| --- | --- |
| C[C@@]12Cc3[nH]nc(C(=O)Nc4cnn(CC5CN(C(=O)C6CCN(c7ccc(C8CCC(=O)NC8=O)cn7)CC6)C5)c4)c3C[C@@H]1C2(F)F (stereo partly drawn) [Compound 22, (4aS,5aR)—N-(1-((1-(1-(5-(2,6-dioxopiperidin-3-yl)pyridin-2-yl)piperidine-4-carbonyl)azetidin-3-yl)methyl)-1H-pyrazol-4-yl)-5,5-difluoro-5a-methyl-1,4,4a,5,5a,6-hexahydrocyclopropa[f]indazole-3-carboxamide] | 113 |
| C[C@@]12Cc3[nH]nc(C(=O)Nc4cnn(CC5CN(C(=O)C6CN(c7ccc(C8CCC(=O)NC8=O)cn7)C6)C5)c4)c3C[C@@H]1C2(F)F (stereo partly drawn) [Compound 23, (4aS,5aR)—N-(1-((1-(1-(5-(2,6-dioxopiperidin-3-yl)pyridin-2-yl)azetidine-3-carbonyl)azetidin-3-yl)methyl)-1H-pyrazol-4-yl)-5,5-difluoro-5a-methyl-1,4,4a,5,5a,6-hexahydrocyclopropa[f]indazole-3-carboxamide] | 129 |
